Measurements as given in patent US4053604A (priority 1975, dated 1977).
Where “and” joins values, the source holds several entries; their conditions need not be identical. Equal entries are not always repeated.

Tests used:
[1] = respiratory minute volume and mean arterial blood pressure in rats; format: in vivo
Method: These effects are less than those encountered with neuroleptics presently available for NLA as evidenced by laboratory experiments in rats in which these cardiovascular parameters are measured before and after the administration of Compound 1 and the neuroleptic agent droperidol, see Table 8.
The Effect of Compound 1 and Droperidol on Respiratory Minute Volume
and Mean Arterial Blood Pressure

[2] = tail-flick test, potentiation of the analgesic activity of phenoperidine; format: in vivo, albino mice
Source text: (§1) In the following experiments, phenoperidine and Compound I are used in the form of their hydrochloride salt and droperidol in the form of its free base in the presence of lactic acid for adjustment to pH to 3.4. Results are expressed on the basis of the form of the drug employed (i.e., free base or hydrochloride salt).
(§2) Results of such tests using albino mice are illustrated by tables 1,2 and 3 in which the neuroleptic agent, droperidol, is included for comparative purposes.
Potentiation of the Analgesic Activity (ED50) of Phenoperidine,
i.e. 0.5 mg/kg, by varying Doses of Neuroleptic Agents.
*PD50 refers to the dose of the neuroleptic which increased the
analgesic activity (ED50) of phenoperidine by 50%.
Modified Analgesic Activity of Phenoperidine in
the Presence of the Neuroleptic PD50. -
*ED50 refers to the analgesic activity of phenoperidine after
pretreatment with a fixed dose (PD50) of the neuroleptic agents.

[3] = tail-flick test, analgesic activity of the agent alone; format: in vivo, albino mice; settings: for ED50: Mus musculus, ip, 0.25 h, i.p., dose which increased analgesia by 50% when tested 15 minutes after drug administration
Source text: as §1, §2
*The dose which increased analgesia by 50% when tested 15 minutes after […]

[4] = anesthesia time of rats exposed to halothane anesthesia (recovery of righting reflex); format: in vivo, male albino rats (Sprague-Dawley); settings: phenoperidine hydrochloride 25 μg/kg, i.v.; in words
Method: (§3) The effects of Compound I on halothane-induced anesthesia were assessed using 20 rats for each dose or time interval determination. The experiments were performed on male albino rats (Sprague-Dawley) weighing from 180-220 g. A schematic representation of the apparatus used is illustrated in FIG. 1. The apparatus consists of a rectangular box made of transparent plastic (115 cm long × 28 cm high × 28 cm wide) which is divided into 4 equal chambers by perforated walls. The box rotates around a hollow axis through which gases can be delivered at several proportions from cylinders, through their respective flowmeters. An in-line halothane vaporizer is placed just before the gases reach the chambers. There is an air-tight door to every chamber through which two animals, one treated and one control, are introduced. The gases are delivered at one end of the box and suction is applied to the other end to take up the gases after flowing through the chambers. An in-line water manometer monitors the resulting pressure. This pressure is kept at 0-5 mm H2 O to make certain the gases in the anesthetic chambers remain at atmospheric pressure. The mixture of gases is delivered at a rate of 15 l/min. The inhalation anesthetic gases are delivered for ten minutes prior to the introduction of the animals into the chambers to assure an even distribution in the four chambers. The chambers rotate at four rev/min forcing the animals to tumble and allowing the experimenter to accurately time the loss and recovery of the righting reflex. Induction times are recorded as the time interval elapsed between the beginning of exposure of the animals to the gases and the moment in which they lose their righting reflex.
(§4) Groups of control animals (four at a time) were subjected to halothane concentrations ranging from 0.5 to 2.5% in a mixture of 95% O2 -5% CO2, and the induction times thus obtained were used to calculate concentration-reponse curves. Since a certain time elapsed between putting the first and the last rat into their respective chambers, each animal was timed separately with a stopwatch. […] This intermediate concentration of halothane was then used to study the effects of increasing doses of the test compound on the induction times and anesthesia times.
(§5) The animals were pretreated by administering the test compounds in dosages ranging from 10 to 500 μg/kg, i.v., at 5, 30, 60, 120, 240 and 360 minutes prior to their exposure to halothane. As soon as all animals lost their righting reflex, the O2 -halothane flow was discontinued and replaced by an equal flow of air. The animals were allowed to remain in the rotating chambers until they regained their righting reflex. Anesthesia times were determined as the interval between the time required to lose and the time to regain the righting reflex. Air flushing of the anesthetic chambers was performed after each determination and the entire procedure repeated with another group of animals for the determination of the effect of a new dose or concentration.
(§6) Drugs used in this study include: droperidol, phenoperidine hydrochloride, halothane and Compound I in the form of its hydrochloride salt. Phenoperidine hydrochloride and Compound I (hydrochloride) were dissolved separately in a warm solution of 0.9% sodium chloride. Droperidol was suspended in saline with the aid of a drop ot Tween 80 (Tween 80 is a registered trademark for a complex mixture of polyoxyethylene ethers of mixed partial oleic esters of sorbitol anhydride). Dosages are expressed in this study as the salt form of the compound where applicable. When the experimental protocol called for the concomitant administration of two drugs, these were mixed in the syringe and administered intravenously. The drugs were injected in a volume of 0.1 ml/100 g body weight.
(§7) The statistical analysis of the data was performed using Student's […]. […]

[5] = induction time of rats exposed to halothane anesthesia (loss of righting reflex); format: in vivo, male albino rats (Sprague-Dawley)
Method: as §3, §4, §5, §6, §7

[6] = behavioral changes and side effects in cebus monkeys; format: in vivo; settings: for Behavioral Changes / Side Effects / Duration / Onset / times at which the side effect was observed: Phenoperidine, individual monkey

O=C(CCCN1CC=C(n2c(=O)[nH]c3ccccc32)CC1)c1ccc(F)cc1 [droperidol, reference compound]
Change in Mean B.P. as % of Control ([1]; 25 μg/kg): -28.4 ± 4.6 % of Control | Change in Minute Volume as % of Control ([1]; 25 μg/kg): +13.9 ± 3.0 % of Control | Change in Mean B.P. as % of Control ([1]; 100 μg/kg): -15.4 ± 5.9 % of Control | Change in Minute Volume as % of Control ([1]; 100 μg/kg): +15.6 ± 6.2 % of Control | Change in Mean B.P. as % of Control ([1]; 250 μg/kg): -26.9 ± 3.2 % of Control | Change in Minute Volume as % of Control ([1]; 250 μg/kg): +27.3 ± 8.1 % of Control | enhancement of analgesic activity of phenoperidine by concomitant administration ([2]; in words): significantly enhanced | relative potentiating activity, Compound I versus droperidol ([2]; in words): equiactive | PD50 of Neuroleptic Agent (dose which increased the analgesic activity (ED50) of phenoperidine by 50%) ([2]; mouse, in vivo, ip): 0.55 ± 0.10 mg/kg | ED50 [3]: > 30 mg/kg | analgesic activity when given alone ([3]; in words): no analgesic activity could be demonstrated

CCOC(=O)C1(c2ccccc2)CCN(CCC(O)c2ccccc2)CC1 (centres unmarked) [phenoperidine, 1-(3-hydroxy-3-phenylpropyl)-4-phenylisonipecotic acid ethyl ester, reference compound]
effect on anesthesia time of rats anesthetized with halothane [4]: did not modify | effect on induction time of rats anesthetized with halothane ([5]; phenoperidine hydrochloride 25 μg/kg, i.v., in words): did not modify | undesirable side effects ([6]; 50-100 μg/kg, in words): salivation and vomiting were consistently observed | Behavioral Changes ([6]; 10 μg/kg i.v.): None | Side Effects ([6]; 10 μg/kg i.v.): None | Behavioral Changes ([6]; 50 μg/kg i.v.): Sedation and None | Duration ([6]; 50 μg/kg i.v.): 1 h and > 3 h | Onset ([6]; 50 μg/kg i.v.): 5 min | Side Effects ([6]; 50 μg/kg i.v.): Salivation and Vomit and None | times at which the side effect was observed ([6]; 50 μg/kg i.v.): 15 min and 10 to 15 min | times at which the side effect was observed ([6]; 100 μg/kg i.v., Vomit): 5 to 25 min and 20 to 45 min | Behavioral Changes ([6]; 100 μg/kg i.v.): Sedation | Duration ([6]; 100 μg/kg i.v.): 1 h | Onset ([6]; 100 μg/kg i.v.): 5 min | Side Effects ([6]; 100 μg/kg i.v.): Vomit | doses producing the main beneficial effect (sedation) and undesirable side effects ([6]; phenoperidine i.v.): 0.05 to 0.1 mg/kg | ED50 [3]: 0.5 ± 0.1 mg/kg

FC(F)(F)C(Cl)Br (centres unmarked) [halothane, reference compound]
induction time, halothane alone (average) ([5]; control experiments, 1% halothane in 95% O2-5% CO2): 2.4 min
